From US5441883A, “A3 adenosine receptor, DNA, and uses” (priority 1993, dated 1995)
Where two headings read alike, the source gives them in different places.

Legend:
A3 adenosine receptor [1] = target: T1, A3 adenosine receptor (Rattus norvegicus, UniProt P28647); assay: Direct radioligand binding / Scatchard analysis, stably transfected CHO cell membranes; conditions: radiolabeled ligands, stably transfected CHO membranes
T1 sequence (P28647 1-320): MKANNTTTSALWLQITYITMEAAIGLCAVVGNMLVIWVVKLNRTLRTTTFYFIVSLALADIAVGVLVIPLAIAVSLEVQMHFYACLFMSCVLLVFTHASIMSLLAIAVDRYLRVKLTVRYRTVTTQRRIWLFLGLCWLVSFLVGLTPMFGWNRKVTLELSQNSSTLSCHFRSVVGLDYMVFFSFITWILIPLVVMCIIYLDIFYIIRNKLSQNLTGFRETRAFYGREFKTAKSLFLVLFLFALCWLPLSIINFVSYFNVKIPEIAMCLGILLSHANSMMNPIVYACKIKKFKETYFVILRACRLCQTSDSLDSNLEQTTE
Source text: FIG. 3 illustrates a Scatchard plot of radioligand binding assays for the A3 adenosine receptor performed with the adenosine radioligand [^125 I]APEA and membrane preparations from stably transfected CHO cells.
The entire coding region of the A3 cDNA insert from R226 was excised from pGem226 and subcloned into either the HindIII/XbaI sites of an RC-RSV expression vector (Invitrogene, San Diego, Calif.) or the HindIII/SmaI sites of pBC12BI (Cullen, 1987, Meth. Enzym. 152: 684-704). The resulting plasmids were called Rc-RSV226 and pBC226 respectively. For transient expression in COS-7 cells, pBC226 plasmid DNA was prepared in large-scale through one cycle of CsCl gradient ultracentrifugation and 45 μg pBC226 DNA were transfected into each 150mm dish of COS-7 cells according to the method of Chen and Okayama (1987, Molec. Cell Biol. 7: 2745-2752). For stable expression in CHO cells, 1 μg Rc-RSV226 plasmid DNA isolated from a small-scale preparation was purified using the Prep-A-Gene kit (Bio-Rad) and transfected into CHO cells by the CaPO4 method (Graham and van der Eb, 1973, Virol. 52: 456-463). After transfection, cells were cultured in DMEM (COS-7 cells) or F-12 (CHO cells) media supplemented with 10% fetal calf serum in a 3% CO2 atmosphere at 37° C. For stable transfection, selection was performed with neomycin (G418; SOURCE) at a concentration of 700 μg/ml; selection was started 72 hr after transfection and continued for 3 weeks. Cell colonies were screened for expression of the A3 adenosine receptor from the R226 expression vectors described herein by Northern blot hybridization of total cellular RNA with random-primed PCR226 probe (Maniatis et al., ibid.).
(§1) Cell membranes were prepared as follows. COS-7 cells (transient expressors) were harvested 48 hrs after transfection, whereas CHO cells (stable expressors) were grown to confluence in 150 mm plates. Cells were washed twice with ice-cold HOB buffer [15 mM Tris-HCl (pH 7.4), 5 mM MgCl2, 1 mM EDTA] and scraped off plates with a rubber policeman. Cells were then collected by centrifugation at 1,200 rpm (xx g), resuspended in HOB buffer, transferred to a Dounce homogenizer on ice, and homogenized for 20 sec with a CorTarge homogenizer (Eberbach Inc., Ann Arbor, Mich.) at the #3 speed setting. The homogenate was then centrifuged at 2,000 rpm (xx g) for 10 min at 4° C. The supernatant was saved and the pellet resuspended in HOB buffer and subjected to a second round of homogenation. The second homogenate was centrifuged at 2000 rpm (xx g) for 10 min and the pellet was discarded. Supernatants were pooled and centrifuged at 34,000 rpm (xx g) for 45 min. These crude membrane pellets were resuspended in TEM buffer [50 mM Tris-HCl (pH 7.4), 5 mM MgCl2, 1 mM EDTA]. Adenosine deaminase (Sigma, St Louis, Mo.) was added to the membrane suspensions to a concentration of 2 Units/ml and incubated at 37° C. for 30 min. The membrane suspension was subsequently recentrifuged at 34,000 rpm (xx g) for 45 min. The resulting pellet was resuspended in TEM buffer at a protein concentration of about 1 mg/ml and stored in small aliquots at -70° C. The protein concentration was measured according to the method of Lowry et al. (1954, J. Biol. Chem. 207: 1-XXX) using bovine serum albumin as a standard.
Radioligand binding assays were carried out in duplicate in 500 μl of a solution containing (at final concentrations) 50 mM Tris-HCl (pH 7.4), 5 mM MgCl2, 1 mM EDTA, 0.025 % ascorbic acid, radioligands, and appropriate drugs. […] ([aH]XAC), [^3 H]-labeled 2-[4-(2-[(4-aminophenyl)methylcarbobylamino]ethylaminocarbonyl)ethyl)phenyl]ethylamino-5'-N-ethylcarboxamidoadenosine ([^3 H]PAPA-APEC), and [^3 H]-labeled [2-(4-(2-carboxyethyl)phenylethyamino)5'-N-ethylcarboxamidoadenosine ([^3 H]CGS21680). Receptor binding was initiated by the addition of membrane preparations in an amount equivalent to 20-100 μg protein, and carried out at 37° C. for 1 hr.

A3 adenosine receptor [2] = target: T1, A3 adenosine receptor; assay: biochemical; type: binding; conditions: for ability to compete with [125I]APNEA for A3 receptor binding: 100 μM
Experimental: FIGS. 4A and 4B illustrates competitive binding assays using stably transfected CHO cell membrane preparations.
as §1
Radioligand binding assays were carried out in duplicate in 500 μl of a solution containing (at final concentrations) 50 mM Tris-HCl (pH 7.4), 5 mM MgCl2, 1 mM EDTA, 0.025 % ascorbic acid, radioligands, and appropriate drugs. […] ([aH]XAC), [^3 H]-labeled 2-[4-(2-[(4-aminophenyl)methylcarbobylamino]ethylaminocarbonyl)ethyl)phenyl]ethylamino-5'-N-ethylcarboxamidoadenosine ([^3 H]PAPA-APEC), and [^3 H]-labeled [2-(4-(2-carboxyethyl)phenylethyamino)5'-N-ethylcarboxamidoadenosine ([^3 H]CGS21680). Receptor binding was initiated by the addition of membrane preparations in an amount equivalent to 20-100 μg protein, and carried out at 37° C. for 1 hr. Nonspecific binding was determined in the presence of 10 μM R-N^6 -phenyl-2-propyladenosine (R-PIA). After incubation, samples were filtered through glass fiber filters (Schleicher and Schuell #32) and washed three times with 4 ml ice-cold 10 mM TrisoHCl (pH 7.4). Radioactivity retained on the filters were counted using a Beckman LS6800 scintillation counter (Beckman Instruments, Palo Alto, Calif.). […] A LIGAND computer program was used for data analysis and curve fitting (Munson & Rodband, 1980, Anal. Biochem. 107: 220-225).
The A3 receptor was then characterized using competition assays between [^125 I]APNEA A3 receptor binding versus a series of other adenosine receptor ligands. Labeled APNEA was present in these assays at 0.5 nM; unlabled competitors were present at varying concentrations as shown in FIG. 4A.

A3 adenosine receptor [3] = target: T1, A3 adenosine receptor; assay: cell-based; type: cell-based
Experimental: The concentrations of adenosine agonists used are 100 nM and the concentration of forskolin is 1 μM. Values are obtained from triplicate plates and shown as mean ±S.E.
The cell were not or pretreated with 100 ng/ml pertussis toxin for 18 hours. The concentration of forskolin and adenosine agonists used are as in FIG. 5.
It is known that the A 1 adenosine receptor inhibits adenylate cyclase activity and the A2 adenosine receptor stimulates adenylate cyclase respectively (Stiles, ibid.; Williams, ibid.).
(§2) Cells were grown to about 80% confluence in 150 mm dishes, washed twice with Ca^++ and Mg^++ -free PBS buffer and detached from plates with PBS buffer containing 0.02% EDTA. Cells were collected by centrifugation at 800 rpm (xx g) for 10 min at 4° C. and resuspended in an appropriate volume of KRH buffer [140 mM NaCl, 5 mM KCl , 2 mM CaCl2, 1.2 mM MgSO4, 1.2 mM KH2 PO4, 6 mM glucose, 25 mM Hepes-NaOH (pH 7.4)]. The cells were washed once with KRH buffer and resuspended in KRH buffer at a concentration of 10^7 cells/ml. Each of 100 μl aliquots of this cell suspension were added to a glass tube containing 100 μl KRH+200 μM Ro 20-1724 and incubated at 37° C. for 10 min. Prewarmed 200 μl KRH containing 200 μm Ro 20-1724 and test drugs were then added to the cells and mixed. After incubation at 37° C. for 20 min, 400 μl 10.5 mM NaAc (pH 6.2) were added and the glass tubes transferred to a boiling water bath. The incubated cell suspension were boiled for 20 min, and the tubes were then cooled to room temperature and centrifuged at 3000 rpm (xx g) for 15 min.
For experiments using pertussis toxin pretreatment, aseptic pertussis toxin (Sigma Chemical Co., St. Louis, Mo.) was dissolved in sterile water and added to the medium to a final concentration of 100 ng/ml. Toxin treatment was maintained for approximately 18 hours. The dishes were rinsed once with media immediately prior to the addition of adenosine receptor ligands and processed as described above.

A3 adenosine receptor [4] = target: T1, A3 adenosine receptor; type: cell-based; conditions: 1 μM forskolin; 100 μM adenosine
cellular cAMP levels = assay: Cellular cAMP levels after forskolin in wild type and stably transfected CHO cells; type: cell-based, Chinese hamster; conditions: Cricetulus griseus, 20 min, read-out: increase in cellular cAMP levels, 1 μM forskolin
Experimental: as §2

`CCCn1c(=O)c2[nH]c(C3CCCC3)nc2n(CCC)c1=O` [DPCPX, 1,3-dipropyl-8-cyclopentylxanthine] was tested. Which “specific, high affinity binding to the A3 receptor” value (“specific, high affinity binding” below) (A3 adenosine receptor [1]) did it give?
Its value is “The only adenosine receptor ligand to show specific, high affinity binding to the A3 receptor was the A1 selective agonist [^125 I]APNEA”.

What about the “specific, high affinity binding” value (A3 adenosine receptor [1]; listed as [^3 H]DPCPX) of the same molecule?
Its value is “does not bind to the A3 adenosine receptor”.

And the “ability to compete with [125I]APNEA for A3 receptor binding” value (A3 adenosine receptor [2])?
The value was “none of the methylxanthines tested were capable of competing with labeled APNEA”.

And the “reversal of inhibitory effect of NECA on forskolin-stimulated cAMP production” value (A3 adenosine receptor [3]; 10 nM DPCPX)?
The value was “could not be reversed”.

`Nc1ncnc2c1ncn2[C@@H]1O[C@H](CO)[C@@H](O)[C@H]1O` [Adenosine, adenosine] was tested. Which “affinity relative to nucleotides” value (A3 adenosine receptor [2]) did it give?
The value was “much higher affinity than ATP, ADP, AMP, cAMP or UTP”.

And the IC50 (A3 adenosine receptor [2]; Table I and text, 0.5 nM [125I]APNEA)?
The IC50 was 30 ± 4 µM.

And the “pharmacological profile of inhibition of [125I]APNEA binding” value (A3 adenosine receptor [2]; rank order)?
Its value is “R-PIA=NECA>S-PIA>adenosine>ATP=ADP”.

And the EC50 (A3 adenosine receptor [3]; Table II)?
The EC50 was 6.5 ± 2.1 µM.

What about the “maximal effect on cAMP production” value (A3 adenosine receptor [3]; at the concentrations tested) of the same molecule?
Its value is “does not reach its maximal effect at the concentrations tested”.

What about the “inhibition of forskolin-stimulated cAMP accumulation” value (A3 adenosine receptor [4]) of the same molecule?
Its value is 20-50%.

Which results are given for `CCCn1c(=O)c2[nH]c(-c3ccc(OCC(=O)NCCN)cc3)nc2n(CCC)c1=O` [XAC]?
specific, high affinity binding to the A3 receptor (A3 adenosine receptor [1]): The only adenosine receptor ligand to show specific, high affinity binding to the A3 receptor was the A1 selective agonist [^125 I]APNEA; ability to compete with [125I]APNEA for A3 receptor binding (A3 adenosine receptor [2]): none of the methylxanthines tested were capable of competing with labeled APNEA

For `C=C[C@@]1(C)CC(=O)[C@]2(O)[C@@]3(C)[C@@H](O)CCC(C)(C)[C@@H]3[C@H](O)[C@H](OC(C)=O)[C@@]2(C)O1` [forskolin], which fold induction at 1 µM (cellular cAMP levels) is on record?
Its fold induction at 1 µM is 15.

For `CCNC(=O)[C@H]1O[C@@H](n2cnc3c(N)nc(NCCc4ccc(CCC(=O)NCCNC(=O)Cc5ccc(N)cc5)cc4)nc32)[C@H](O)[C@@H]1O` [PAPA-APEC], which “specific, high affinity binding” value (A3 adenosine receptor [1]) is on record?
Its value is “The only adenosine receptor ligand to show specific, high affinity binding to the A3 receptor was the A1 selective agonist [^125 I]APNEA”.

`CCNC(=O)[C@H]1O[C@@H](n2cnc3c(N)nc(NCCc4ccc(CCC(=O)O)cc4)nc32)[C@H](O)[C@@H]1O` [CGS21680] was tested. Which “specific, high affinity binding” value (A3 adenosine receptor [1]) did it give?
Its value is “The only adenosine receptor ligand to show specific, high affinity binding to the A3 receptor was the A1 selective agonist [^125 I]APNEA”.

And the EC50 (A3 adenosine receptor [3])?
Its EC50 is 0.144 ± 0.034 µM.

What about the “inhibition of forskolin-stimulated cAMP accumulation” value (A3 adenosine receptor [3]; 1 μM forskolin, 100 nM agonist) of the same molecule?
The value was 20-50%.

What about the “maximum inhibition of cAMP production” value (A3 adenosine receptor [3]; of control values) of the same molecule?
The value was 40-50%.
